Measurements as given in patent US20230064307A1, “Pharmaceutical composition to destabilize abnormal methylation enzymes and use thereof” (priority 2021, published 2023).
Like-named read-outs stand apart in the source and are kept apart here.

What was measured:
[1] = system: cells with abnormal MEs; experiment: Differentiation inducer (DI) activity, ED25/ED50/ED75; type: cell-based
[2] = system: cells with abnormal MEs; experiment: Differentiation helper inducer (DHI) potency, RI0.5 (reductive index); type: cell-based
Description: DHI was our invention, which was the term we created. DHls are inhibitors of individual enzymes of MEs. Rl0.5 was the method we developed for the measurement of potency as DHI [67].

[3] = Water solubility; type: physicochemical
[4] = target: T1, MAT (Homo sapiens, UniProt P31153); experiment: Helping role of DHI to boost the activity of DI, in cell culture (Km, Vmax of enzyme from treated cells); type: cell-based
T1 construct: endogenous in cells
Description: (§1) DHI was our invention, which was the term we created. DHls are inhibitors of individual enzymes of MEs. Rl0.5 was the method we developed for the measurement of potency as DHI [67]. Inhibitors of MT and SAHH are better than inhibitors of MAT to function as DHIs.

[5] = system: cells with abnormal MEs; experiment: Helping role of DHI to boost the activity of DI, in cell culture (% NBT+); type: cell-based
Description: as §1

[6] = target: T2, MEs (MAT-MT-SAHH) (Rattus norvegicus, UniProt P10760); experiment: Testosterone administration, sedimentation profiles of MEs from long-term hormone-depleted prostate (FIG. 1); type: in vivo; details: hypophysectomized rats, daily sc 1 mg for 3 days; single peak, intact ternary MEs
T2 construct: Cytosol extracts were prepared from prostates of each group; from tissue; host or cells: prostate cytosol of hypophysectomized rats
T2 sequence (P10760 1-432): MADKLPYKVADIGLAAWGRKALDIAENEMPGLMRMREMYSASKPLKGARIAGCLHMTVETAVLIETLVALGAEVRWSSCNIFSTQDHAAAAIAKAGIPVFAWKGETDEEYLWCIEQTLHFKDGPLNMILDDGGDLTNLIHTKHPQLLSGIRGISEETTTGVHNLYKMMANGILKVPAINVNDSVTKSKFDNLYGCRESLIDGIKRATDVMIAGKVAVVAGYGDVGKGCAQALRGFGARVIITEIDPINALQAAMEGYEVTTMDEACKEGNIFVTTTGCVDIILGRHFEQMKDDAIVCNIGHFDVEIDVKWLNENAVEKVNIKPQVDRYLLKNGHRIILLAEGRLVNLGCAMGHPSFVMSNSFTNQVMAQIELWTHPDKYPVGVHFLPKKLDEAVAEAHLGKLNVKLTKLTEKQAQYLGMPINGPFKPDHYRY
Description: Ten weeks after hypophysectomy, rats were divided into two groups. One group (b) received daily sc injection of I mg testosterone propionate dissolved in 0.25 ml of sesame oil for 3 days. The other group (a) was control without treatment. Cytosol extracts were prepared from prostates of each group with 5 volume of extraction buffer 0.05 M Tris HCl, pH 7.5, 50 mM KCl, 0.5 mM MgCl2. 0.1 ml of cytosol extracts were layered onto 5-20% linear sucrose density gradient for sedimentation analyses.

[7] = system: malignant brain tumors; details: in vivo; cited from earlier work
[8] = potency as DHI, RI0.5 is equivalent to ED25 of DI

T1 sequence (P31153 whole entry): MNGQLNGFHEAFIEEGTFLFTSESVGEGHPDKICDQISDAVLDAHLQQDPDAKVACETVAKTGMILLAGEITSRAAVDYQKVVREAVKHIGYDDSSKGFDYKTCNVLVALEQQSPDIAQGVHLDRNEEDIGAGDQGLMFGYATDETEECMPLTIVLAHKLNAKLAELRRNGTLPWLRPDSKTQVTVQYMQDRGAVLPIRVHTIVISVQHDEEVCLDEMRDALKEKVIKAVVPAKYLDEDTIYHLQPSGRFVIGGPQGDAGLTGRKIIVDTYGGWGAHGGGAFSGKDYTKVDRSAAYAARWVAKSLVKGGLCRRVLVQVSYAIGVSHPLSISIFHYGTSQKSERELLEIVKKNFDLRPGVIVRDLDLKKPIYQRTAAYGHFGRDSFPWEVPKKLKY

CCCCC(C)(C)[C@H](O)/C=C/[C@H]1[C@H](O)CC(=O)[C@@H]1C/C=C\CCCC(=O)O [16, 16-dimethylPGE2, 16,16-dimethylprosglandin E2]
ED25 [1]: 10.8 µM | ED75 [1]: 30.1 µM

CCCCC/C=C\C/C=C\C/C=C\C/C=C\CCCC(=O)O [AA, arachidonic acid]
ED25 [1]: 24.0 µM

O=[As]O[As]=O (stereo not shown) [AS2O3]
RI0.5 [2, 8]: 0.28 µM

CC1=C(/C=C/C(C)=C/C=C/C(C)=C/C(=O)O)C(C)(C)CCC1 [ATRA, all-trans retinoic acid]
ED25 [1]: 0.18 µM | ED75 [1]: 0.75 µM

C/C(=C\C(=O)Nc1ccccc1C(=O)O)c1ccc2ccccc2c1 [BIBR1532]
ED25 [1]: 32.3 µM | ED75 [1]: 55.1 µM

CCCCC1C(=O)CC[C@H]2[C@@H]1CC(=O)[C@@H]2C/C=C\CCCC(=O)O (stereo partly shown) [BicycloPGE2, bicycloprostaglandin E2]
ED25 [1]: 21.0 µM

COc1cc2c(cc1O)C[C@H]1c3c(cc(O)c(OC)c3-2)CCN1C [Boldine]
ED25 [1]: 60.1 µM | ED75 [1]: 94.2 µM

[Cl-].[Cl-].[Co+2] [CoCl2]
RI0.5 [2]: 0.62 µM

COc1cc(/C=C/C(=O)CC(=O)/C=C/c2ccc(O)c(OC)c2)ccc1O [Curcumin]
water solubility [3]: not good

CN(C)C=O [DMFA, dimethylformamide]
Km ([4]; in cell culture, DMFA, 0.3%): 16.4 µM | Vmax (% of control) ([4]; in cell culture, DMFA, 0.3%): 78 % of control | % NBT+ ([5]; DMFA, 0.3%): 14%

O=C(O[C@@H]1Cc2c(O)cc(O)cc2O[C@@H]1c1cc(O)c(O)c(O)c1)c1cc(O)c(O)c(O)c1 [Epigallocatechin gallate]
RI0.5 [2, 8]: 0.62 µM

C/C=C1\C(=O)C[C@H]2[C@@H]3CCC4=CC(=O)CC[C@]4(C)[C@H]3CC[C@]12C [Gugulsterone]
RI0.5 [2, 8]: 1.59 µM

O=C(O)Cc1ccccc1 [PA, phenylacetate]
Km ([4]; in cell culture, PA, 4 mM): 20.3 µM | Vmax (% of control) at 4000 µM ([4]; read-out: Vmax (% of control)): 88% | % NBT+ ([5]; PA, 4 mM): 7%

CCCCC[C@H](O)/C=C/[C@H]1[C@H](O)CC(=O)[C@@H]1C/C=C\CCCC(=O)O [PGE2, prostaglandin E2]
ED25 [1]: 20.6 µM | ED75 [1]: 46.5 µM

CCCCC[C@H](O)/C=C/[C@H]1C(=O)C=C[C@@H]1C/C=C\CCCC(=O)O [PGJ2, prostaglandin J2]
ED25 [1]: 7.9 µM | ED75 [1]: 20.5 µM

CC(=O)[C@H]1CC[C@H]2[C@@H]3CC=C4C[C@@H](O)CC[C@]4(C)[C@H]3CC[C@]12C [Pregnenolone]
RI0.5 [2, 8]: 7.16 µM | water solubility [3]: not good

CC1=C(/C=C/C(C)=C/C=C/C(C)=C/C(=O)O)C(C)(C)CCC1 [RA, retinoic acid]
Km ([4]; in cell culture, RA, 0.15 µM, read-out: Km): 17.5 µM | remaining activity at 0.15 µM ([4]; in cell culture, RA, 0.15 µM, read-out: Vmax (% of control)): 60% | % NBT+ ([5]; RA, 0.15 µM): 16%

O=[Se](O)O [Selenite]
RI0.5 [2, 8]: 19.7 µM

C=CC1=C(C)C(=O)N=C1C=c1[nH]c(=Cc2[nH]c(O)c(C)c2CCC(=O)O)c(CCC(=O)O)c1C [Uroerythrin]
RI0.5 [2, 8]: 1.75 µM

C=C1CC[C@H](O)C/C1=C/C=C1\CCC[C@]2(C)[C@@H]([C@H](C)CCCC(C)C)CC[C@@H]12 [Vitamin D3]
RI0.5 [2, 8]: 0.61 µM

Cc1ccc(Nc2nccc(N(C)c3ccc4c(C)n(C)nc4c3)n2)cc1S(N)(=O)=O.Cl [Votrient]
RI0.5 [2, 8]: 10.1 µM

CCC(=O)O[C@H]1CC[C@H]2[C@@H]3CCC4=CC(=O)CC[C@]4(C)[C@H]3CC[C@]12C [testosterone propionate]
sedimentation of MEs (MAT, MT, SAHH) of prostate cytosol [6]: 8 S

CC[C@H](CC[C@@H](C)[C@H]1CC[C@H]2[C@@H]3CC=C4C[C@@H](O)CC[C@]4(C)[C@H]3CC[C@]12C)C(C)C [ß-sitoisterol]
RI0.5 [2, 8]: 1.72 µM

Phenylbutyric acid
response of malignant brain tumors [7]: responded very well | RI0.5 [2, 8]: 970 µM

Tetradecanoyl phorbol acetate [TPA]
ED25 [1]: 0.00017 µM | ED75 [1]: 0.00036 µM
